Here are results for one molecule from US10214507B2, “Carbazole-containing amides, carbamates, and ureas as cryptochrome modulators” (Reset Therapeutics, Inc., priority 2014, dated 2019).

The test system of assay [1] is C57/Bl6J DIO mice. The experiment in a line: Increasing dosages of Compound 72 for 7 days in diet-induced obesity mouse model. It is filed as in vivo. The text has this: Male C57/Bl6J DIO mice were obtained from The Jackson Laboratory (Sacramento, Calif.). […] Animals were accustomed to these conditions for at least 2 weeks before experimentation and used at approximately 24 weeks of age.
(§1) Significance was accepted when p<0.05.
Male C57/Bl6J DIO mice were obtained from The Jackson Laboratory (Sacramento, Calif.). […] Animals were accustomed to these conditions for at least 2 weeks before experimentation and used at approximately 26 weeks of age.

Assay [2] deals with core clock gene mRNAs in liver of Balb/c mice. The experiment in a line: 24 hour gene expression study, liver mRNA by RT-qPCR, Balb/c mice. Particulars: 50 mg/kg BID PO. It counts as in vivo, mouse. On the procedure: (§2) E.Z.N.A.® HP Total RNA Isolation Kits (R6812-01 and the protocol described in the Manual, Revised 2010) were utilized to prepare and isolate RNA from the liver samples. To prepare the RNA samples, 10-30 mg of sample was removed from RNA-Later and placed in a 1.5 ml microfuge tube. GTC lysis buffer (700 μl) was added to the tissue, which was homogenized with a rotor-stator homogenizer (e.g. Tissue-Tearor, Model #985370 BioSpec Products with 4.5 mm probe, Cat. #985370-04), and then centrifuged at full speed (>13,000×g) for 5 minutes. The cleared supernatant was transferred by pipetting to a DNA Clearance Column Pre-inserted in a 2 mL Collection Tube. The assembled column was centrifuged at 13,000×g for 1 minute, and the flow-through was saved. An equal volume (700 μl) of 70% ethanol was added to the lysate and mixed. The sample was then applied to a HiBind RNA spin column placed into a 2 ml collection tube, which was centrifuged at 10,000×g for 60 seconds at room temperature. RNA Wash Buffer I (250 μl) was added by pipetting directly onto a new HiBind RNA column inserted in a 2 ml collection tube. The assembled column was centrifuged at 10,000×g for 60 seconds. The RNA column was placed into a new 2 ml collection tube. DNase I stock solution is pipetted (75 μl) directly onto the surface of the HiBind RNA resin in each column (Using DNAse Digestion with RNase Free DNase Set (E1091): for each HiBind RNA column, the DNase I stock solution was prepared as followed: E.Z.N.A.® DNase I Digestion Buffer 73.5μl, RNase Free DNase I (20 Kunitz/μl) 1.5 μl=Total Volume 75 μl.). The column with bound RNA was incubated at room temperature (25-30° C.) for 15 minutes. RNA Wash Buffer I (500 μl) was added to the column and placed on a bench top for 2 minutes. After centrifuging at 10,000×g for 60 seconds, discarding the flow-through, 500 μl of RNA Wash Buffer II was added and centrifuged at 10,000×g for 60 seconds. Another 500 μl of RNA Wash Buffer II was added and the column assembly was centrifuged at 10,000×g for 60 seconds. The column was centrifuged for 2 minutes at maximum speed to completely dry the HiBind matrix. […]
RediPlate 96 RiboGreen RNA Quantification Kit (Invitrogen) RediPlate standard curve was prepared by transferring 20 μl reconstituted RNA standard to a RediPlate well reconstituted in 180 μl RediPlate TE buffer. […] After transferring 5 μl to RediPlate well reconstituted in 195 μl TE buffer and incubating 10 min. at RT, Fluorescence Intensity of wells with standards and samples were read in a Tecan M200 with Excitation set at 480 nm and Emission set at 520 nm with the gain set to −70%. […] A standard curve was generated in GraphPad Prism and sample readings (unknowns) are interpolated via linear regression analysis, and the RNA sample concentrations were calculated. […]
(Quantitative PCR measures a nucleic acid by following its amplification.)

Assay [3] concerns core clock and gluconeogenic gene mRNAs in liver of C57Bl/6J DIO mice. The experiment in a line: 24 hour gene expression study, liver mRNA by RT-qPCR, C57Bl/6J DIO mice. It counts as in vivo, mouse. The conditions noted are these: 50 mg/kg BID PO.
Source text: Male C57Bl/6J DIO mice were purchased at 17 weeks of age (The Jackson Laboratory, Sacramento, Calif.) and acclimated for a 2 week period before being used for the experiment. Overall group size was 15 per treatment, divided into 5 time-points to give a final group size of 3 mice.
In total, each mouse received 5 doses of compound over the course of the experiment. Mice were weighed and randomly assigned to each treatment based on weight the evening before the commencement of the study. Beginning on Day 3 at 3:00 PM, a group of animals from the vehicle and Compound 72-treated groups were euthanized using CO2 asphyxiation, 50 mg of liver, epididymal fat, and skeletal muscle, respectively, were excised and placed in tube containing 500 μl of RNALater. This procedure took place for the remainder of the time-point groups at their given harvest times. Plasma samples were also taken for each animal and frozen, to be used for later measurement of compound levels.
as §2, with “matrix. The column was placed in a clean 1.5 ml microcentrifuge tube and 40-70 μl of molecular biology grade water is added.” for “matrix.”
RediPlate 96 RiboGreen RNA Quantification Kit (Invitrogen) RediPlate standard curve was prepared by transferring 20 μl reconstituted RNA standard to a RediPlate well reconstituted in 180 μl RediPlate TE buffer. […]

In assay [4] the test system is db/db mouse model of type II diabetes. The experiment in a line: 7 day dosing, glucose metabolism, insulin and compound levels in db/db mice. It is filed as in vivo. The conditions noted are these: 50 mg/kg PO 7 days.
Source text: as §1

Setting [5] is: at ZT8 and 32 hours after original ZT0.
Where [6] appears, read: peak of expression in dark period.

Turning to `O=C1NCCN1CC(O)Cn1c2ccc(F)cc2c2cc(F)ccc21` (centres unmarked) [Compound 72, 1-(3-(3,6-difluoro-9H-carbazol-9-yl)-2-hydroxypropyl)imidazolidin-2-one], the fasting blood glucose in assay [1] (10 mg/kg QD PO 7 days) came to 206.8 ± 8.36 mg/dL; in assay [1] (30 mg/kg QD PO 7 days) it was 197.5 ± 12.06 mg/dL; in assay [1] (100 mg/kg QD PO 7 days), 176.3 ± 7.83 mg/dL. For the same molecule, the “glucose AUC from OGTT” value in assay [1] (10 mg/kg QD PO 7 days) is on record as 22563+/−1224 units; in assay [1] (30 mg/kg QD PO 7 days) it was 19033+/−1934 units; in assay [1] (100 mg/kg QD PO 7 days), 19502+/−2404 units. Besides, the “Cry2 mRNA daytime peak in liver” value in assay [2] and in assay [3] was “strongly attenuated” in each case. For the same molecule, the “Bmal1 mRNA in liver” value in assay [2] (setting [5]) and in assay [3] (setting [5]) was “substantially increased” in each case. Further, the “Cry1 mRNA in liver” value in assay [2] (setting [6]) and in assay [3] (setting [6]) was “suppressed” each time. The “Per2 mRNA in liver over 24 hours” value in assay [2] (vs vehicle) and in assay [3] (vs vehicle) was “suppressed” in each case. Moreover, the “circadian pattern of mRNAs for gluconeogenic genes Pck1 and G6Pc” value in assay [3] (liver, relative to vehicle) is on record as “substantially altered”. In assay [4], the HOMA-IR is reported as 93.69+/−23.60 units. Further, in assay [4], the “fasting blood glucose (FBG)” value was found to be 385.0 ± 29.69 mg/dL. Besides, the “glucose AUC calculated from the OGTT” value in assay [4] was 35942+/−3192. In assay [4], the “plasma insulin at t=0” value stood at 3.78 ± 0.69 ng/mL. In assay [4] (after glucose load), the “plasma insulin at t=2 hr” value worked out at 2.53 ± 0.50 ng/mL. In addition, in assay [4] (vs vehicle), the “reduction of HOMA-IR” value was determined as 33%. Moreover, the “reduction of insulin at t=0” value in assay [4] (vs vehicle) is 20%. Besides, in assay [4] (vs vehicle), the “reduction of insulin at t=2 hr” value is given as 21%.
